Results reported in patent US8765733B2, “Amine substituted methanesulfonamide derivatives as vanilloid receptor ligands” (Gruenenthal GmbH, priority 2011, dated 2014).

Biological target: vanilloid receptor 1 (VR1/TRPV1 receptor) (Homo sapiens, UniProt Q8NER1)
Assay: FLIPR functional assay (Ca2+ influx, capsaicin) on the vanilloid receptor 1
Type: cell-based
Conditions: capsaicin (Cap) stimulus; for inhibition at 5 µM: compound at 5 μM, read-out: inhibition (as a percentage) Cap, (human being); for Ki: functional (f), Ki from IC50 by Cheng-Prusoff, read-out: (f) Ki (human being) [nM] Cap

SMILES | inhibition at 5 µM [%] | Ki [nM]
CC(C(=O)NCc1ccc(C(F)(F)F)nc1N1CCCC1)c1cccc(CNS(C)(=O)=O)c1 (centres unmarked) [Example 2, 2-(3-(methylsulfonamidomethyl)phenyl)-N-((2-(pyrrolidin-1-yl)-6-(trifluoromethyl)pyridin-3-yl)methyl)propanamide] | 48 | –
CS(=O)(=O)NCc1ccc(NC(=O)NCc2ccc(C(F)(F)F)nc2N2CCCC2)cc1 [Example 4, N-(4-(3-((2-(pyrrolidin-1-yl)-6-(trifluoromethyl)pyridin-3-yl)methyl)ureido)benzyl)methanesulfonamide] | – | 26
CCNc1nc(C(F)(F)F)ccc1CNC(=O)C(C)c1ccc(CNS(C)(=O)=O)c(F)c1 (centres unmarked) [Example 8, N-((2-(ethylamino)-6-(trifluoromethyl)pyridin-3-yl)methyl)-2-(3-fluoro-4-(methylsulfonamidomethyl)phenyl)propanamide] | 71 | –
CCCCNc1nc(C(F)(F)F)ccc1CNC(=O)C(C)c1ccc(CNS(C)(=O)=O)c(F)c1 (centres unmarked) [Example 9, N-((2-(butylamino)-6-(trifluoromethyl)pyridin-3-yl)methyl)-2-(3-fluoro-4-(methylsulfonamidomethyl)phenyl)propanamide] | – | 95
COC1CN(c2nc(C(F)(F)F)ccc2CNC(=O)C(C)c2ccc(CNS(C)(=O)=O)c(F)c2)C1 (centres unmarked) [Example 14, 2-(3-fluoro-4-(methylsulfonamidomethyl)phenyl)-N-((2-(3-methoxyazetidin-1-yl)-6-(trifluoromethyl)pyridin-3-yl)methyl)propanamide] | 46 | –
CC(C(=O)NCc1ccc(C(F)(F)F)nc1N1CCCC1)c1ccc(CNS(C)(=O)=O)c(F)c1 (centres unmarked) [Example 17, 2-(3-fluoro-4-(methylsulfonamidomethyl)phenyl)-N-((2-(pyrrolidin-1-yl)-6-(trifluoromethyl)pyridin-3-yl)methyl)propanamide] | – | 23
CC(C(=O)NCc1ccc(C(F)(F)F)nc1N1CCC(c2ccccc2)(N(C)C)CC1)c1ccc(CNS(C)(=O)=O)c(F)c1 (centres unmarked) [Example 34, N-((2-(4-(dimethylamino)-4-phenylpiperidin-1-yl)-6-(trifluoromethyl)pyridin-3-yl)methyl)-2-(3-fluoro-4-(methylsulfonamidomethyl)phenyl)propanamide] | – | 61
CC(C(=O)NCc1ccc(C(F)(F)F)nc1N1CCOCC1)c1ccc(CNS(C)(=O)=O)c(F)c1 (centres unmarked) [Example 35, 2-(3-fluoro-4-(methylsulfonamidomethyl)phenyl)-N-((2-morpholino-6-(trifluoromethyl)pyridin-3-yl)methyl)propanamide] | 53 | –
CC(C(=O)NCc1ccc(C(F)(F)F)nc1N1CCCC1)c1ccc(CNS(C)(=O)=O)c(Cl)c1 (centres unmarked) [Example 45, 2-(3-chloro-4-(methylsulfonamidomethyl)phenyl)-N-((2-(pyrrolidin-1-yl)-6-(trifluoromethyl)pyridin-3-yl)methyl)propanamide] | – | 80
COc1cc(C(C)C(=O)NCc2ccc(C(F)(F)F)nc2N2CCCC2)ccc1CNS(C)(=O)=O (centres unmarked) [Example 48, 2-(3-methoxy-4-(methylsulfonamidomethyl)phenyl)-N-((2-(pyrrolidin-1-yl)-6-(trifluoromethyl)pyridin-3-yl)methyl)propanamide] | – | 87
Cc1cc(NC(=O)NCc2ccc(C(F)(F)F)nc2N2CCCC2)ccc1CNS(C)(=O)=O [Example 52, N-(2-methyl-4-(3-((2-(pyrrolidin-1-yl)-6-(trifluoromethyl)pyridin-3-yl)methyl)ureido)benzyl)methanesulfonamide] | – | 46
CCS(=O)(=O)NCc1ccc(C(C)C(=O)NCc2ccc(C(F)(F)F)nc2N2CCCC2)cc1F (centres unmarked) [Example 54, 2-(4-(ethylsulfonamidomethyl)-3-fluorophenyl)-N-((2-(pyrrolidin-1-yl)-6-(trifluoromethyl)pyridin-3-yl)methyl)propanamide] | – | 76
NS(=O)(=O)NCc1ccc(CCC(=O)NCc2ccc(C(F)(F)F)nc2N2CCCC2)cc1 [Example 56, 1-{[2-pyrrolidin-1-yl-6-(trifluoromethyl)pyridin-3-yl]methyl}-3-{4-[(sulfamoylamino)methyl]phenyl}propanamide] | – | 38
NS(=O)(=O)NCc1ccc(NC(=O)NCc2ccc(C(F)(F)F)nc2N2CCCC2)cc1 [Example 57, 1-{[2-pyrrolidin-1-yl-6-(trifluoromethyl)pyridin-3-yl]methyl}-3-{4-[(sulfamoylamino)methyl]phenyl}urea] | – | 85
CC1CCN(c2nc(C(F)(F)F)ccc2CNC(=O)C(C)c2ccc(CN(C)S(C)(=O)=O)c(F)c2)CC1 (centres unmarked) [Example 63, 2-(3-fluoro-4-((N-methylmethylsulfonamido)methyl)phenyl)-N-((2-(4-methylpiperidin-1-yl)-6-(trifluoromethyl)pyridin-3-yl)methyl)propanamide] | – | 55

The remaining molecules from weak to strong by Ki, led by results:

inhibition at 5 µM [%] | Ki [nM] | SMILES
– | 20 | NS(=O)(=O)NCc1ccc(NC(=O)NCc2ccc(C(F)(F)F)nc2N2CCCC2)cc1F [Example 60, 1-{3-fluoro-4-[(sulfamoylamino)methyl]phenyl}-3-{[2-pyrrolidin-1-yl-6-(trifluoromethyl)pyridin-3-yl]methyl}urea]
– | 12 | COc1cc(NC(=O)NCc2ccc(C(F)(F)F)nc2N2CCC(C)CC2)ccc1CNS(C)(=O)=O [Example 49, N-(2-methoxy-4-(3-((2-(4-methylpiperidin-1-yl)-6-(trifluoromethyl)pyridin-3-yl)methyl)ureido)benzyl)methanesulfonamide]
– | 11 | CC1CCN(c2nc(C(F)(F)F)ccc2CNC(=O)C(C)c2ccc(CNS(C)(=O)=O)cc2)CC1 (centres unmarked) [Example 6, N-((2-(4-methylpiperidin-1-yl)-6-(trifluoromethyl)pyridin-3-yl)methyl)-2-(4-(methylsulfonamidomethyl)phenyl)propanamide]
– | 8 | CC1CCN(c2nc(C(F)(F)F)ccc2CNC(=O)C(C)c2ccc(CNS(C)(=O)=O)c(F)c2)CC1 (centres unmarked) [Example 30, 2-(3-fluoro-4-(methylsulfonamidomethyl)phenyl)-N-((2-(4-methylpiperidin-1-yl)-6-(trifluoromethyl)pyridin-3-yl)methyl)propanamide]
– | 6 | CC1CCN(c2nc(C(F)(F)F)ccc2CNC(=O)Nc2ccc(CNS(C)(=O)=O)c(O)c2)CC1 [Example 47, N-(2-hydroxy-4-(3-((2-(4-methylpiperidin-1-yl)-6-(trifluoromethyl)pyridin-3-yl)methyl)ureido)benzyl)methanesulfonamide]
– | 5 | CC(C(=O)NCc1ccc(C(F)(F)F)nc1N1CCCCC1)c1ccc(CNS(C)(=O)=O)c(F)c1 (centres unmarked) [Example 21, 2-(3-fluoro-4-(methylsulfonamidomethyl)phenyl)-N-((2-(piperidin-1-yl)-6-(trifluoromethyl)pyridin-3-yl)methyl)propanamide]
– | 5 | CC1CCN(c2nc(C(C)(C)C)ccc2CNC(=O)C(C)c2ccc(CNS(C)(=O)=O)c(F)c2)CC1 (centres unmarked) [Example 28, N-((6-tert-butyl-2-(4-methylpiperidin-1-yl)pyridin-3-yl)methyl)-2-(3-fluoro-4-(methylsulfonamidomethyl)phenyl)propanamide]
– | 5 | CC1CCN(c2cc(C(F)(F)F)ccc2CNC(=O)C(C)c2ccc(CNS(C)(=O)=O)c(F)c2)CC1 (centres unmarked) [Example 29, 2-(3-fluoro-4-(methylsulfonamidomethyl)phenyl)-N-(2-(4-methylpiperidin-1-yl)-4-(trifluoromethyl)benzyl)propanamide]
– | 5 | CC1CCN(c2nc(C(F)(F)F)ccc2CNC(=O)Nc2ccc(CNS(C)(=O)=O)c(F)c2)CC1 [Example 24, N-(2-fluoro-4-(3-((2-(4-methylpiperidin-1-yl)-6-(trifluoromethyl)pyridin-3-yl)methyl)ureido)benzyl)methanesulfonamide]
– | 5 | CC1CCN(c2nc(C(F)(F)F)ccc2CNC(=O)C(C)c2ccc(CNS(C)(=O)=O)c(Cl)c2)CC1 (centres unmarked) [Example 46, 2-(3-chloro-4-(methylsulfonamidomethyl)phenyl)-N-((2-(4-methylpiperidin-1-yl)-6-(trifluoromethyl)pyridin-3-yl)methyl)propanamide]
– | 5 | Cc1cc(NC(=O)NCc2ccc(C(F)(F)F)nc2N2CCC(C)CC2)ccc1CNS(C)(=O)=O [Example 53, N-(2-methyl-4-(3-((2-(4-methylpiperidin-1-yl)-6-(trifluoromethyl)pyridin-3-yl)methyl)ureido)benzyl)methanesulfonamide]
– | 4 | CC1CCN(c2nc(C(F)(F)F)ccc2CNC(=O)Nc2ccc(CNS(C)(=O)=O)cc2)CC1 [Example 5, N-(4-(3-((2-(4-methylpiperidin-1-yl)-6-(trifluoromethyl)pyridin-3-yl)methyl)ureido)benzyl)methanesulfonamide]
– | 4 | CC1CCN(c2nc(C(F)(F)F)ccc2CNC(=O)Cc2ccc(CNS(C)(=O)=O)c(F)c2)CC1 [Example 25]
– | 4 | CC1CCN(c2nc(C(F)(F)F)ccc2CNC(=O)C(C)c2ccc(CNS(N)(=O)=O)c(F)c2)CC1 (centres unmarked) [Example 64, 2-(3-fluoro-4-((sulfamoylamino)methyl)phenyl)-N-((2-(4-methylpiperidin-1-yl)-6-(trifluoromethyl)pyridin-3-yl)methyl)propanamide]
– | 2 | CC1CCN(c2nc(C(F)(F)F)ccc2CNC(=O)C(C)c2ccc(CNS(N)(=O)=O)cc2)CC1 (centres unmarked) [Example 58, N-((2-(4-methylpiperidin-1-yl)-6-(trifluoromethyl)pyridin-3-yl)methyl)-2-(4-((sulfamoylamino)methyl)phenyl)propanamide]
– | 1 | CC1CCN(c2nc(C(F)(F)F)ccc2CNC(=O)Nc2ccc(CNS(N)(=O)=O)cc2)CC1 [Example 59, 1-{[2-(4-methylpiperidin-1-yl)-6-(trifluoromethyl)pyridin-3-yl]methyl}-3-{4-[(sulfamoylamino)methyl]phenyl}urea]
– | 1 | CC1CCN(c2nc(C(F)(F)F)ccc2CNC(=O)Nc2ccc(CNS(N)(=O)=O)c(F)c2)CC1 [Example 61, 1-{3-fluoro-4-[(sulfamoylamino)methyl]phenyl}-3-{[2-(4-methylpiperidin-1-yl)/-6-(trifluoromethyl)pyridin-3-yl]methyl}urea]
